The data set deals with Brd4 (Homo sapiens, UniProt O60885). Briefly: Brd4 degradation by immunoblotting in PC-3 cells. It counts as cell-based. The note with it: siRNA-VHL 50 nM 72 h, then 30 nM SHD913 for 4 h. A general note: Immunoblotting shows a protein as a band on a membrane.

Consider “siVHL: siRNA against VHL; sense sequence 5′- GGCUCAACUUCGACGGCGA −3′ (antisense UCGCCGUCGAAGUUGAGCC; chemistry not given here)”, for which the “effect of siVHL pretreatment on SHD913-mediated Brd4 degradation” value is on record as “reversed SHD913-mediated Brd4 degradation”.

The values above are taken from PMC11672125 (JACS Au, 2024).
